The values that follow are results of earlier work, collected in US20170202789A1, “METHODS AND RELATED COMPOSITIONS FOR IMPROVED DRUG BIOAVAILABILITY AND DISEASE TREATMENT” (priority 2014, published 2017).

For series [1] the following is noted: 400 mg, untrained individuals.
The conditions of series [2]: co-administration with carbohydrate drink, depending on dose and frequency.
The conditions of series [3]: 3 mg/kg one hour prior to running, p<0.05.
For series [4] the following is noted: 6 mg/kg + maintenance doses, with 7% carbohydrate drink.
For series [5] the following is noted: doses of 6-9 mg/kg.
For series [6] the following is noted: caffeine 160 mg drink prior to cycling time trial, p<0.01.

Take `Cn1c(=O)c2c(ncn2C)n(C)c1=O` [caffeine]: for the setting “energy drink with caffeine, low dose”, the “cognitive function before exercise” value is on record as “improved long term memory”. In addition, the “cognitive function after exercise” value (low and medium dose caffeine containing energy drinks) is “improved all cognitive tests”. The “effect on bench press, leg extension strength or cycle ergometry” value in series [1] is listed as “did not have any positive effects”. Besides, in series [2], the increase in performance is given as 2-3%. Also, the “improvement in performance compared to placebo” value in series [3] is on record as 1.2%. Moreover, in series [4], the “difference in performance with versus without caffeine” value is “No differences were noted”. In addition, the adverse effects result in series [5] was “jitters, increased heart rate, and a diminution in exercise performance”. The “reduction of time to complete the trial” value in series [6] is reported as approximately 5%.

For the compound `[O]=[V]([O-])([O-])[O-]` [vanadate], the “concentration at which formation of EP is inhibited” value in the series with Na/K ATPase is reported as “less than 1 micromolar”.
